From EP0674645B1, “CEPHEM COMPOUNDS WITH ANTIMICROBIAL ACTIVITY” (FUJISAWA PHARMACEUTICAL CO., LTD., priority 1992, dated 1994)
Counter-ions that a name gives are not always drawn.

What was measured:
Assay in all cases: In vitro antibacterial activity, two-fold agar-plate dilution method (MIC)
Format in all cases: cell-based
[1] = system: E. coli 31; conditions: Escherichia coli, heart infusion agar, 10^6 viable cells per ml, 37°C for 20 hours
Procedure: (§1) In vitro antibacterial activity was determined by the two-fold agar-plate dilution method as described below. One loopful of an overnight culture of each test strain in Trypticase-soy broth (10^6 viable cells per ml) was streaked on heart infusion agar (HI-agar) containing graded concentrations of representative test compound, and the minimal inhibitory concentration (MIC) was expressed in terms of µg/ml after incubation at 37°C for 20 hours.

[2] = system: P. aeruginosa 2; conditions: Pseudomonas aeruginosa, heart infusion agar, 10^6 viable cells per ml, 37°C for 20 hours
Procedure: as §1

[3] = system: S. aureus 2538; conditions: Staphylococcus aureus, heart infusion agar, 10^6 viable cells per ml, 37°C for 20 hours
Procedure: as §1

- MIC [1]: ≤ 0.025 µg/mL
- MIC [2]: 0.39 µg/mL
- MIC [3]: 3.13 µg/mL
SMILES: CCO/N=C(\C(=O)N[C@@H]1C(=O)N2C(C(=O)[O-])=C(C[n+]3ccc(N)n3CCO)CS[C@H]12)c1nsc(N)n1 [7β-[2-(5-Amino-1,2,4-thiadiazol-3-yl)-2-ethoxyiminoacetamido]-3-[3-amino-2-(2-hydroxyethyl)-1-pyrazolio]methyl-3-cephem-4-carboxylate hydrochloride (syn isomer)]
